# In US9546401B2, “Assays and methods for selecting a treatment regimen for a subject with depression” (The General Hospital Corporation, priority 2011, dated 2017):
# Like-named read-outs stand apart in the source and are kept apart here.
# Columns and labels:
# [1] = test system: MDD patients carrying the indicated SNP
# Text: The term “prevalence” as used in FIG. 8B refers to the total percentage of MDD patients who carry the SNP as indicated in this particular study.
# [2] = test system: MDD patients, remitters at end of double-blind phase; conditions: for Relapsers (HAM-D-17 > 15) during 12-month maintenance phase: 15 mg/day as adjuvant
# Procedure: During each visit, patients are administered the HAM-D-28, the CGI, the QIDS-SR, the SAFTEE-SI, the MGH-CPFQ, and the MGH-SFQ (See, e.g., Table 10 below). […] Subjects are also allowed to change their antidepressant during the course of the follow-up, if deemed appropriate. For patients who refuse the 12 months of free follow-up care, a referral to a psychiatrist is offered.
# [3] = test system: SSRI-resistant outpatients with major depressive disorder (MDD)
# Procedure: Documentation of the presence of any side effect or adverse event is completed at every visit using the SAFTEE-SI. Subjects can contact a clinician at any time between visits concerning adverse events or worsening of symptoms. Suicidal ideation is assessed at each visit. Subjects who are felt by the study clinician to be at high risk for suicide are discontinued from the study and referred for hospitalization and further treatment if clinically indicated (See Tables 4 & 5 below).
# One-way analysis of variance can be used to assess differences in total number of SAFTEE-SI AEs between baseline and endpoint.
# [4] = CACNA1C rs1006737 (AG), genotype code 13
# [5] = COMT (Val 158 Met) rs4680 (GG), genotype code 33
# [6] = COMT (Val 158 rs4633 (CC), genotype code 22)
# [7] = DAT (SLC6A3) rs250682 (CG), genotype code 33
# [8] = DNMT3B rs1883729 (AG), genotype code 11/13
# [9] = DNMT3B rs1883729 (AG), genotype code 11
# [10] = DNMT3B rs1883729 (AG), genotype code 13
# [11] = DRD2 (H313H) rs6275 (TT), genotype code 11
# [12] = DRD2 (SLC26A9) rs11240594 (AG), genotype code 33
# [13] = DRD2 (Taq1Br) rs1079596 (TC), genotype code 42/44
# [14] = DRD2 (Taq1Br) rs1079596 (TC), genotype code 42
# [15] = FDRC rs2277820 (TC), genotype code 22
# [16] = GCH1 rs8007267 (TC), genotype code 42
# [17] = GCHFR rs7163862 (TA), genotype code 41
# [18] = GCPH or FOLH1 rs202676 (AG), genotype code 31
# [19] = MTHFD 1 G1958A (R653Q) rs2236225 (AG), genotype code 33
# [20] = MTHFR G1793A rs2274976 (GA), genotype code 42
# [21] = PCYT1A rs7639752 (AA), genotype code 11
# [22] = RCF1 (in SLC19A1) rs1051266 (AA), genotype code 44
# [23] = RCF1 A > G rs2297291 (AA), genotype code 11
# [24] = RCF2 (in SLC19A1) rs12659 (TT), genotype code 11
# [25] = Trial 2, 15 mg + SSRI, versus placebo
smiles,measurement,setting,value
"CN1c2c(nc(N)[nH]c2=O)NC[C@@H]1CNc1ccc(C(=O)N[C@@H](CCC(=O)O)C(=O)O)cc1 [6(S)-5-MTHF, 6(S)-5-methyltetrahydrofolate]","PHASE I EFFFCT, change in HAMD-28",[1]; [4],−8.006
same,"PHASE II EFFFCT, change in HAMD-28",[1]; [4],−2.467
same,"POOLED PHASES EFFFCT, change in HAMD-28",[1]; [4],−4.633
same,"PHASE II EFFFCT, change in HAMD-28",[1]; [5],−10.170
same,"PHASE I EFFFCT, change in HAMD-28","[1]; COMT (Val 158 Met) rs4680 (GG), genotype code 33, folate-containing compound + SSRI",−12.070
same,"POOLED PHASES EFFFCT, change in HAMD-28",[1]; [5],−10.880
same,"PHASE I EFFFCT, change in HAMD-28",[1]; [6],−10.070
same,"PHASE II EFFFCT, change in HAMD-28",[1]; [6],−10.170
same,"POOLED PHASES EFFFCT, change in HAMD-28",[1]; [6],−9.240
same,"PHASE I EFFFCT, change in HAMD-28",[1]; [7],−5.722
same,"PHASE II EFFFCT, change in HAMD-28",[1]; [7],−5.768
same,"POOLED PHASES EFFFCT, change in HAMD-28",[1]; [7],−4.996
same,"PHASE I EFFFCT, change in HAMD-28",[1]; [8],−6.340
same,"PHASE II EFFFCT, change in HAMD-28",[1]; [8],−4.940
same,"POOLED PHASES EFFFCT, change in HAMD-28",[1]; [8],−5.360
same,"PHASE I EFFFCT, change in HAMD-28",[1]; [9],−2.318
same,"PHASE II EFFFCT, change in HAMD-28",[1]; [9],−5.267
same,"POOLED PHASES EFFFCT, change in HAMD-28",[1]; [9],−4.811
same,"PHASE I EFFFCT, change in HAMD-28",[1]; [10],−8.097
same,"PHASE II EFFFCT, change in HAMD-28",[1]; [10],−4.667
same,"POOLED PHASES EFFFCT, change in HAMD-28",[1]; [10],−6.748
same,"PHASE I EFFFCT, change in HAMD-28",[1]; [11],−16.560
same,"PHASE II EFFFCT, change in HAMD-28",[1]; [11],1.667
same,"POOLED PHASES EFFFCT, change in HAMD-28",[1]; [11],−7.627
same,"PHASE I EFFFCT, change in HAMD-28",[1]; [12],−5.018
same,"PHASE II EFFFCT, change in HAMD-28",[1]; [12],−3.424
same,"POOLED PHASES EFFFCT, change in HAMD-28",[1]; [12],−3.758
same,"PHASE I EFFFCT, change in HAMD-28",[1]; [13],−10.640
same,"PHASE II EFFFCT, change in HAMD-28",[1]; [13],−3.893
same,"POOLED PHASES EFFFCT, change in HAMD-28",[1]; [13],−6.903
same,"PHASE I EFFFCT, change in HAMD-28",[1]; [14],−10.640
same,"PHASE II EFFFCT, change in HAMD-28",[1]; [14],−3.893
same,"POOLED PHASES EFFFCT, change in HAMD-28",[1]; [14],−6.903
same,"PHASE I EFFFCT, change in HAMD-28",[1]; [15],−2.634
same,"PHASE II EFFFCT, change in HAMD-28",[1]; [15],−6.232
same,"POOLED PHASES EFFFCT, change in HAMD-28",[1]; [15],−4.027
same,"PHASE I EFFFCT, change in HAMD-28",[1]; [16],−7.729
same,"PHASE II EFFFCT, change in HAMD-28",[1]; [16],−5.417
same,"POOLED PHASES EFFFCT, change in HAMD-28",[1]; [16],−6.654
same,"PHASE I EFFFCT, change in HAMD-28",[1]; [17],−6.280
same,"PHASE II EFFFCT, change in HAMD-28",[1]; [17],−4.542
same,"POOLED PHASES EFFFCT, change in HAMD-28",[1]; [17],−4.863
same,"PHASE I EFFFCT, change in HAMD-28",[1]; [18],−7.314
same,"PHASE II EFFFCT, change in HAMD-28",[1]; [18],−3.300
same,"POOLED PHASES EFFFCT, change in HAMD-28",[1]; [18],−5.402
same,"PHASE I EFFFCT, change in HAMD-28",[1]; [19],−2.742
same,"PHASE II EFFFCT, change in HAMD-28",[1]; [19],−3.762
same,"POOLED PHASES EFFFCT, change in HAMD-28",[1]; [19],−3.496
same,"PHASE I EFFFCT, change in HAMD-28",[1]; [20],−5.333
same,"PHASE II EFFFCT, change in HAMD-28",[1]; [20],2.833
same,"POOLED PHASES EFFFCT, change in HAMD-28",[1]; [20],−5.551
same,"PHASE I EFFFCT, change in HAMD-28",[1]; [21],−10.400
same,"PHASE II EFFFCT, change in HAMD-28",[1]; [21],−3.900
same,"POOLED PHASES EFFFCT, change in HAMD-28",[1]; [21],−6.716
same,"PHASE I EFFFCT, change in HAMD-28",[1]; [22],−10.000
same,"PHASE II EFFFCT, change in HAMD-28",[1]; [22],−2.750
same,"POOLED PHASES EFFFCT, change in HAMD-28",[1]; [22],−7.673
same,"PHASE I EFFFCT, change in HAMD-28",[1]; [23],−8.778
same,"PHASE II EFFFCT, change in HAMD-28",[1]; [23],−1.400
same,"POOLED PHASES EFFFCT, change in HAMD-28",[1]; [23],−5.458
same,"PHASE I EFFFCT, change in HAMD-28",[1]; [24],−7.571
same,"PHASE II EFFFCT, change in HAMD-28",[1]; [24],−1.400
same,"POOLED PHASES EFFFCT, change in HAMD-28",[1]; [24],−4.860
same,Relapsers (HAM-D-17 > 15) during 12-month maintenance phase,"[2]; Trial 1, 2 remitters entering maintenance",0
same,Relapsers (HAM-D-17 > 15) during 12-month maintenance phase,"[2]; Trial 2, 9 remitters entering maintenance",0
same,relapse during 12-month maintenance phase,"[2]; remitters at end of double-blind phase, 15 mg/day adjunctive",did not have a relapse
same,number of adverse events (SAFTEE-SI),[3]; SSRI + 15 mg/day versus SSRI + placebo,no significant differences in the number of adverse events
same,discontinuation due to overall adverse side-effects or exclusion events,[3]; Trial 2,no difference in discontinuation
same,"Cardiovascular side effects, Frequency","[3]; Trial 2, 15 mg + SSRI, n = 42",0
same,"Cardiovascular side effects, Frequency (%)","[3]; Trial 2, 15 mg + SSRI, n = 42",(0%)
same,"Gastrointestinal side effects, Frequency","[3]; Trial 2, 15 mg + SSRI, n = 42",7
same,"Gastrointestinal side effects, Frequency (%)","[3]; Trial 2, 15 mg + SSRI, n = 42",(16.7%)
same,"Infectious side effects, Frequency","[3]; Trial 2, 15 mg + SSRI, n = 42",5
same,"Infectious side effects, Frequency (%)","[3]; Trial 2, 15 mg + SSRI, n = 42",(11.9%)
same,"Miscellaneous side effects, Frequency","[3]; Trial 2, 15 mg + SSRI, n = 42",1
same,"Miscellaneous side effects, Frequency (%)","[3]; Trial 2, 15 mg + SSRI, n = 42",(2.4%)
same,"Psychological side effects, Frequency","[3]; Trial 2, 15 mg + SSRI, n = 42",4
same,"Psychological side effects, Frequency (%)","[3]; Trial 2, 15 mg + SSRI, n = 42",(9.5%)
same,"Sexual side effects, Frequency","[3]; Trial 2, 15 mg + SSRI, n = 42",1
same,"Sexual side effects, Frequency (%)","[3]; Trial 2, 15 mg + SSRI, n = 42",(2.4%)
same,"Sleep side effects, Frequency","[3]; Trial 2, 15 mg + SSRI, n = 42",1
same,"Sleep side effects, Frequency (%)","[3]; Trial 2, 15 mg + SSRI, n = 42",(2.4%)
same,"Somatic side effects, Frequency","[3]; Trial 2, 15 mg + SSRI, n = 42",6
same,"Somatic side effects, Frequency (%)","[3]; Trial 2, 15 mg + SSRI, n = 42",(14.3%)
same,"Cardiovascular side effects, NNH",[3]; [25],=placebo
same,"Gastrointestinal side effects, NNH",[3]; [25],53
same,"Infectious side effects, NNH",[3]; [25],<placebo
same,"Miscellaneous side effects, NNH",[3]; [25],<placebo
same,"Psychological side effects, NNH",[3]; [25],<placebo
same,"Sexual side effects, NNH",[3]; [25],98
same,"Sleep side effects, NNH",[3]; [25],<placebo
same,"Somatic side effects, NNH",[3]; [25],<placebo
